In data set [1] the target is T1, p38 MAPK alpha (MAPK14: Invitrogen) (Homo sapiens, UniProt Q16539).
T1 construct: purchased Invitrogen
Nature of the data set: Enzyme inhibition assay (FRET, Z-LYTE), p38 MAPK alpha, via activation of MAPKAP-K2. As to conditions: read-out: IC50 values p38α enzyme. Type of data set: biochemical.

The target of data set [2] is T2, recombinant, phosphorylated p38 MAPK gamma (MAPK12:Millipore) (Homo sapiens, UniProt P53778).
T2 construct: purchased Millipore
T2 sequence (P53778 1-367): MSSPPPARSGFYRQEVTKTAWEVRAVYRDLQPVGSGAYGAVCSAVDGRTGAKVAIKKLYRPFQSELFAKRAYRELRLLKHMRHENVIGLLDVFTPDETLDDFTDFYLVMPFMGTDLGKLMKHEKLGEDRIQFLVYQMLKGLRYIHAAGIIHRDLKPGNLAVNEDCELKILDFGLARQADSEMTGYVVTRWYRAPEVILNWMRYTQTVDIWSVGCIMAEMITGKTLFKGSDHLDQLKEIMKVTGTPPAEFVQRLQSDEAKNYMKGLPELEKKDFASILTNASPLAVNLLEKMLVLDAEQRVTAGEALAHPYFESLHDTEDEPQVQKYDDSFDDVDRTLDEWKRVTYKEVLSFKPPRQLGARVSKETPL
Nature of the data set: Enzyme inhibition assay (FRET, Z-LYTE), p38 MAPK gamma. Type of data set: biochemical. To be noted: read-out: IC50 values P38γ enzyme.
Protocol: The enzyme inhibitory activity of compound was determined by fluorescence resonance energy transfer (FRET) using synthetic peptides labelled with both donor and acceptor fluorophores (Z-LYTE, Invitrogen). Briefly, recombinant, phosphorylated p38 MAPK gamma (MAPK12:Millipore) was diluted in HEPES buffer, mixed with compound at desired final concentrations and incubated for two hours at room temperature. The FRET peptide (2 μM) and ATP (100 uM) were next added to the enzyme/compound mixture and incubated for one hour. Development reagent (protease) was added for one hour prior to detection in a fluorescence microplate reader. The site-specific protease only cleaves non-phosphorylated peptide and eliminates the FRET signal. Phosphorylation levels of each reaction were calculated using the ratio of coumarin emission (donor) over fluorescein emission (acceptor) with high ratios indicating high phosphorylation and low ratios, low phosphorylation levels.

Data set [3] relates to LPS-induced TNFα release in differentiated U937 cells. Nature of the data set: LPS-induced TNF alpha release in differentiated U937 cells. In kind it is cell-based.
Protocol: U937 cells, human monocytic cell line, were differentiated to macrophage-type cells by incubation with phorbol myristate acetate (PMA; 100 ng/ml) for 48 to 72 hours. Where appropriate, cells were pre-incubated with final concentrations of compound for 2 hrs. Cells were then stimulated with 0.1 μg/mL of LPS (from E. coli: O111:B4, Sigma) for 4 hrs, and the supernatant collected for determination of TNFα concentration by sandwich ELISA (Duo-set, R&D systems).
In data set [4] the test system is LPS-induced TNFα release in THP-1 cells. Nature of the data set: LPS-induced TNF alpha release in THP-1 cells. As to conditions: Homo sapiens. In kind it is cell-based.
Protocol: THP-1, human monocytic cell line, was also used for this assay. THP-1 cells were stimulated with 1 μg/ml of LPS (from E. coli: O111:B4, Sigma) for 4 hrs, and the supernatant collected for determination of TNFα concentration.
THP-1 cells, a human monocytic cell line, were stimulated with 1 μg/ml of LPS (from E. coli; O111:B4, Sigma) for 4 hr and the supernatant collected for determination of TNFα concentration by sandwich ELISA (Duo-set, R&D systems). The inhibition of TNFα production was calculated at each concentration by comparison with vehicle control.
Data set [5] relates to Differentiated U937 cells. As to the kind of experiment: MTT assay (loss of cell viability). In kind it is cell-based, human. To be noted: for MTT 4 hr / MTT 24 hr: loss of cell viability, 10 ug/ml. A general note: Tetrazolium dyes change colour on reduction, which living cells bring about.
Protocol: Differentiated U937 cells were pre-incubated with compound for 4 hrs in 5% FCS or 10% FCS for 24 hrs and 72 hr. The supernatant was replaced with 200 ul of new media and 10 μL of MTT stock solution (5 mg/mL) added to each well. After 1 hr incubation, the media were removed, 200 μL of DMSO added to each well and the plates were shaken lightly for 1 hr prior to reading the absorbance at 550 nm.
The percentage loss of cell viability was calculated for each well relative to vehicle (0.5% DMSO)-treatment. Consequently an apparent increase in cell viability for drug treatment relative to vehicle is tabulated as a negative percentage.
[6] abbreviates: Homo sapiens; read-out: R-EC50 values d-U937 cells.
Where [7] appears, read: THP-1, LPS-induced TNFα release, read-out: IC50 values THP-1 cells.
Setting [8] is: Homo sapiens, read-out: R-EC50 values d-U937 cells.
The mark [9] stands for this setting: THP-1, read-out: IC50 values THP-1 cells.

pEC50, pIC50: −log10 of the molar value. Read-outs that look alike come from different tables or passages of the source.

As a reminder, the pIC50 is −log10 of the IC50, conventionally taken in molar units. By pEC50 is commonly meant −log10 of the EC50, conventionally taken in molar units.

T1 sequence (Q16539 whole entry): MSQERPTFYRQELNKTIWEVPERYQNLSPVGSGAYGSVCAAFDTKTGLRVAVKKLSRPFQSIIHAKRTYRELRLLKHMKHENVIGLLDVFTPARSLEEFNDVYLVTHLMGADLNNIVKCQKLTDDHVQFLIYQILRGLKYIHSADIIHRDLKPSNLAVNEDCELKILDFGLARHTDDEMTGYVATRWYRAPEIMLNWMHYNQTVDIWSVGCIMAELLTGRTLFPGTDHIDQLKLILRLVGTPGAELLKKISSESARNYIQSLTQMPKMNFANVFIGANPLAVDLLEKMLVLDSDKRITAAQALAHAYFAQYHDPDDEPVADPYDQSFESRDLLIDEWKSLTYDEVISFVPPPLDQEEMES

For `Cc1ccc(-n2nc(C(C)(C)C)cc2NC(=O)Nc2ccc(OCc3ccnc(NC(=O)CO)c3)c3ccccc23)cc1` [Example 7, N-(4-((4-(3-(3-tert-Butyl-1-p-tolyl-1H-pyrazol-5-yl)ureido)naphthalen-1-yloxy)methyl)pyridin-2-yl)-2-hydroxyacetamide], the pIC50 was greater than 8.00 in data set [1], greater than 6.30 in data set [2] and greater than 8.00 in data set [4] (setting [7]). In addition, in data set [3] (setting [6]), the negative logarithm of the EC50 (pEC50) is greater than 8.00. Also, the “MTT 4 hr” value in data set [5] is reported as “− (− <30%)”. In data set [5], the “MTT 24 hr” value was “+ (+ >30% at 10 ug/ml)”.

Turning to `CO[C@@H](C)C(=O)Nc1cc(COc2ccc(NC(=O)Nc3cc(C(C)(C)C)nn3-c3ccc(C)cc3)c3ccccc23)ccn1` [Example 4, (S)-N-(4-((4-(3-(3-tert-Butyl-1-p-tolyl-1H-pyrazol-5-yl)ureido)naphthalen-1-yloxy)methyl)pyridin-2-yl)-2-methoxypropanamide], the pIC50 was greater than 6.30 in data set [1], greater than 6.30 in data set [2] and greater than 8.00 in data set [4] (setting [7]). For the same compound, the pEC50 in data set [3] (setting [6]) was greater than 8.00. Further, the “MTT 4 hr” value in data set [5] is reported as “− (− <30%)”. Moreover, the “MTT 24 hr” value in data set [5] is listed as “− (− <30%)”.

As to `Cc1ccc(-n2nc(C(C)(C)C)cc2NC(=O)Nc2ccc(OCc3ccnc(NC(=O)CS(=O)(=O)CCN4CCOCC4)c3)c3ccccc23)cc1` [Example 32, N-(4-((4-(3-(3-tert-Butyl-1-p-tolyl-1H-pyrazol-5-yl)ureido)naphthalen-1-yloxy)methyl)pyridin-2-yl)-2-(2-morpholinoethylsulfonyl)acetamide], the results for the pIC50 in data set [1], in data set [2] and in data set [4] (setting [7]) were greater than 8.00, greater than 6.30 and greater than 6.30, respectively. Further, the pEC50 in data set [3] (setting [6]) is greater than 8.00. Also, in data set [5], the “MTT 4 hr” value is listed as “− (− <30%)”. For the same compound, the “MTT 24 hr” value in data set [5] was “− (− <30%)”.

With `COCC(=O)Nc1cc(CC(C)Oc2ccc(NC(=O)Nc3cc(C(C)(C)C)nn3-c3ccc(C)cc3)c3ccccc23)ccn1` (centres unmarked) [Example 46, N-(4-(2-(4-(3-(3-tert-Butyl-1-p-tolyl-1H-pyrazol-5-yl)ureido)naphthalen-1-yloxy)propyl)pyridin-2-yl)-2-methoxyacetamide], the negative logarithm of the IC50 (pIC50) in data set [1] is greater than 6.30; in data set [2] it was less than 5.30; in data set [4] (setting [7]) it was greater than 6.30. In addition, in data set [3] (setting [6]), the pEC50 was greater than 6.30. Besides, the “MTT 4 hr” value in data set [5] was “− (− <30%)”. Also, the “MTT 24 hr” value in data set [5] is “− (− <30%)”.

On to `COCCOCC(=O)Nc1cnccc1COc1ccc(NC(=O)Nc2cc(C(C)(C)C)nn2-c2ccc(C)cc2)c2ccccc12` [Example 36, N-(4-((4-(3-(3-tert-Butyl-1-p-tolyl-1H-pyrazol-5-yl)ureido)naphthalen-1-yloxy)methyl)pyridin-3-yl)-2-(2-methoxyethoxy)acetamide], for which the negative logarithm of the IC50 (pIC50) in data set [2] is less than 5.30. Further, the pEC50 in data set [3] (setting [8]) is greater than 8.00. For the same compound, the pIC50 in data set [4] (setting [9]) was greater than 6.30. Besides, in data set [5], the “MTT 4 hr” value is “− (− <30%)” and the “MTT 24 hr” value is given as “− (− <30%)”.

As for `CNC(=O)Nc1cc(COc2ccc(NC(=O)Nc3cc(C(C)(C)C)nn3-c3ccc(C)cc3)c3ccccc23)ccn1` [Example 2, Methyl 4-((4-(3-(3-tert-butyl-1-p-tolyl-1H-pyrazol-5-yl)ureido)naphthalen-1-yloxy)methyl)pyridin-2-ylurea], the negative-log IC50 (pIC50) in data set [2] and in data set [4] (setting [7]) was greater than 6.30 throughout. For the same compound, the pEC50 in data set [3] (setting [6]) was greater than 6.30. The “MTT 4 hr” value in data set [5] was “− (− <30%)”. In addition, in data set [5], the “MTT 24 hr” value was “− (− <30%)”.

For `Cc1ccc(-n2nc(C(C)(C)C)cc2NC(=O)Nc2ccc(OCc3ccnc(NC(=O)[C@@H]4COCCN4)c3)c3ccccc23)cc1` [Example 11, (S)-N-(4-((4-(3-(3-tert-Butyl-1-p-tolyl-1H-pyrazol-5-yl)ureido)naphthalen-1-yloxy)methyl)pyridin-2-yl)morpholine-3-carboxamide], the negative logarithm of the IC50 (pIC50) is greater than 8.00 in data set [1], greater than 5.30 in data set [2] and greater than 8.00 in data set [4] (setting [7]). Also, the pEC50 in data set [3] (setting [6]) is greater than 8.00. In addition, the “MTT 4 hr” value in data set [5] is “− (− <30%)”. Also, the “MTT 24 hr” value in data set [5] is “− (− <30%)”.

`Cc1ccc(-n2nc(C(C)(C)C)cc2NC(=O)Nc2ccc(OCc3ccnc(NC(=O)CN4CCCC4)c3)c3ccccc23)cc1` [Example 22, N-(4-((4-(3-(3-tert-Butyl-1-p-tolyl-1H-pyrazol-5-yl)ureido)naphthalen-1-yloxy)methyl)pyridin-2-yl)-2-(pyrrolidin-1-yl)acetamide]: the results for the negative-log IC50 (pIC50) in data set [1], in data set [2] and in data set [4] (setting [7]) were greater than 8.00, greater than 6.30 and greater than 8.00, respectively. For the same compound, the negative-log EC50 (pEC50) in data set [3] (setting [6]) is greater than 8.00. For the same compound, in data set [5], the “MTT 4 hr” value is “− (− <30%)”. In data set [5], the “MTT 24 hr” value is reported as “− (− <30%)”.

Regarding `COCC(=O)Nc1cc(C(C)COc2ccc(NC(=O)Nc3cc(C(C)(C)C)nn3-c3ccc(C)cc3)c3ccccc23)ccn1` (centres unmarked) [Example 47, N-(4-(1-(4-(3-(3-tert-Butyl-1-p-tolyl-1H-pyrazol-5-yl)ureido)naphthalen-1-yloxy)propan-2-yl)pyridin-2-yl)-2-methoxyacetamide], the pIC50 in data set [1] was greater than 6.30; in data set [2], less than 5.30; in data set [4] (setting [7]), greater than 8.00. Also, the pEC50 in data set [3] (setting [6]) was greater than 8.00. In data set [5], the “MTT 4 hr” value is recorded as “− (− <30%)”. Also, in data set [5], the “MTT 24 hr” value is “− (− <30%)”.

As to `COCC(=O)Nc1cc(COc2ccc(NC(=O)Nc3cc(C(C)(C)C)nn3-c3ccc(C)cc3)c3ccccc23)ccn1` [Example 1, N-(4-((4-(3-(3-tert-Butyl-1-p-tolyl-1H-pyrazol-5-yl)ureido)naphthalen-1-yloxy)methyl)pyridin-2-yl)-2-methoxyacetamide], in data set [5] (4, 24 h (10 μg/ml)), the “Differentiated U937 cells MTT Assay” value is given as “Negative^2”. Also, in data set [5], the “MTT 4 hr” value is reported as “− (− <30%)” and the “MTT 24 hr” value is recorded as “− (− <30%)”.

For `COCC(=O)Nc1cc(OCCc2ccc(NC(=O)Nc3cc(C(C)(C)C)nn3-c3ccc(C)cc3)c3ccccc23)ccn1` [Example 43, N-(4-(2-(4-(3-(3-tert-butyl-1-p-tolyl-1H-pyrazol-5-yl)ureido)naphthalen-1-yl)ethoxy)pyridin-2-yl)-2-methoxyacetamide], the results for the pIC50 in data set [1], in data set [2] and in data set [4] (setting [7]) were greater than 6.30, greater than 5.30 and greater than 6.30, respectively. The pEC50 in data set [3] (setting [6]) was greater than 6.30. Besides, the “MTT 4 hr” value in data set [5] is given as “− (− <30%)”. Also, the “MTT 24 hr” value in data set [5] is “− (− <30%)”.

`COCC(=O)Nc1cnccc1COc1ccc(NC(=O)Nc2cc(C(C)(C)C)nn2-c2ccc(C)cc2)c2ccccc12` [Example 35, N-(4-((4-(3-(3-tert-Butyl-1-p-tolyl-1H-pyrazol-5-yl)ureido)naphthalen-1-yloxy)methyl)pyridin-3-yl)-2-methoxyacetamide]: the pIC50 in data set [2] is less than 5.30. Moreover, in data set [5], the “MTT 4 hr” value is reported as “− (− <30%)” and the “MTT 24 hr” value was “− (− <30%)”.

`Cc1ccc(-n2nc(C(C)(C)C)cc2NC(=O)Nc2ccc(Oc3ccnc(NC(=O)CS(C)(=O)=O)c3)c3ccccc23)cc1` [Example 51, N-(4-(4-(3-(3-tert-Butyl-1-p-tolyl-1H-pyrazol-5-yl)ureido)naphthalen-1-yloxy)pyridin-2-yl)-2-(methylsulfonyl)acetamide]: in data set [3] (setting [8]), the pEC50 is greater than 8.00. Also, the negative-log IC50 (pIC50) in data set [4] (setting [9]) was greater than 8.00. In data set [5], the “MTT 4 hr” value is recorded as “− (− <30%)” and the “MTT 24 hr” value is “+ (+ >30% at 10 ug/ml)”.

With `CNC(=O)Nc1cnccc1COc1ccc(NC(=O)Nc2cc(C(C)(C)C)nn2-c2ccc(C)cc2)c2ccccc12` [Example 34, 1-(4-((3-Methylureidopyridin-4-yl)methoxy)naphthalen-1-yl)-3-(3-tert-butyl-1-p-tolyl-1H-pyrazol-5-yl)urea], the pIC50 in data set [2] was greater than 5.30. Also, the negative-log EC50 (pEC50) in data set [3] (setting [6]) is greater than 6.30. Moreover, in data set [4] (setting [7]), the negative logarithm of the IC50 (pIC50) is greater than 6.30. Moreover, in data set [5], the “MTT 4 hr” value was “+ (+ >30% at 10 ug/ml)” and the “MTT 24 hr” value is given as “− (− <30%)”.

Regarding `COCCNCC(=O)Nc1cc(COc2ccc(NC(=O)Nc3cc(C(C)(C)C)nn3-c3ccc(C)cc3)c3ccccc23)ccn1` [Example 25, N-(4-((4-(3-(3-tert-Butyl-1-p-tolyl-1H-pyrazol-5-yl)ureido)naphthalen-1-yloxy)methyl)pyridin-2-yl)-2-(2-methoxyethylamino)acetamide], in data set [2], the negative logarithm of the IC50 (pIC50) is greater than 6.30. Further, the negative-log EC50 (pEC50) in data set [3] (setting [6]) was greater than 8.00. For the same compound, the pIC50 in data set [4] (setting [7]) is greater than 8.00. In data set [5], the “MTT 4 hr” value is on record as “− (− <30%)” and the “MTT 24 hr” value is listed as “− (− <30%)”.

Consider `COCCNC(=O)CNC(=O)Nc1cc(COc2ccc(NC(=O)Nc3cc(C(C)(C)C)nn3-c3ccc(C)cc3)c3ccccc23)ccn1` [Example 15, 2-(3-(4-((4-(3-(3-tert-Butyl-1-p-tolyl-1H-pyrazol-5-yl)ureido)naphthalen-1-yloxy)methyl)pyridin-2-yl)ureido)-N-(2-methoxyethyl)acetamide], for which the pIC50 in data set [2] was greater than 6.30. The pEC50 in data set [3] (setting [6]) was greater than 6.30. Further, in data set [4] (setting [7]), the negative-log IC50 (pIC50) was greater than 8.00. Besides, in data set [5], the “MTT 4 hr” value was “− (− <30%)” and the “MTT 24 hr” value is recorded as “− (− <30%)”.
